Common to all, as to type: biochemical
In test [1] the target is T1, JAK1 (Homo sapiens, UniProt P23458).
T1 construct: purchased Invitrogen
Put plainly: JAK1 enzyme inhibition test (LANCE method). As to conditions: 1 μM test compound; for inhibition at 1 µM: read-out: JAK1 enzyme inhibitory activity (%, 1 μM). The gist of the method:
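Inhibition expressed against no-enzyme wells (100% inhibition), from time-resolved fluorescence at 665 nm after Eu-anti-phosphotyrosine antibody/EDTA detection. Kinase reaction ran 1 h at room temperature, pH 7.5 HEPES buffer, ULight-JAK1 substrate and ATP diluted to 300 nM and 150 μM before addition.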
A general note: TR-FRET usually uses a lanthanide donor and a delayed reading to cut background.

Test [2] concerns the target T2, JAK2 (Homo sapiens, UniProt O60674).
T2 construct: purchased Invitrogen
Briefly: JAK2 enzyme inhibition test (LANCE method). The settings on record: 1 μM test compound; for inhibition at 1 µM: read-out: JAK2 enzyme inhibitory activity (%, 1 μM). The gist of the method:
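TR-FRET (LANCE) read-out, ex 340/em 665 nm with 100 μs delay, after 1 hr room-temperature detection with europium anti-phosphotyrosine antibody and 20 mM EDTA. The preceding 1 hr kinase reaction combined JAK2, ULight-JAK1 substrate and ATP, added as 6 ng/mL, 300 nM and 45 μM solutions; enzyme-free wells defined 100% inhibition.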

The target in test [3] is T3, JAK3 (Homo sapiens, UniProt P52333).
T3 construct: purchased Invitrogen
T3 sequence (P52333 1-1124): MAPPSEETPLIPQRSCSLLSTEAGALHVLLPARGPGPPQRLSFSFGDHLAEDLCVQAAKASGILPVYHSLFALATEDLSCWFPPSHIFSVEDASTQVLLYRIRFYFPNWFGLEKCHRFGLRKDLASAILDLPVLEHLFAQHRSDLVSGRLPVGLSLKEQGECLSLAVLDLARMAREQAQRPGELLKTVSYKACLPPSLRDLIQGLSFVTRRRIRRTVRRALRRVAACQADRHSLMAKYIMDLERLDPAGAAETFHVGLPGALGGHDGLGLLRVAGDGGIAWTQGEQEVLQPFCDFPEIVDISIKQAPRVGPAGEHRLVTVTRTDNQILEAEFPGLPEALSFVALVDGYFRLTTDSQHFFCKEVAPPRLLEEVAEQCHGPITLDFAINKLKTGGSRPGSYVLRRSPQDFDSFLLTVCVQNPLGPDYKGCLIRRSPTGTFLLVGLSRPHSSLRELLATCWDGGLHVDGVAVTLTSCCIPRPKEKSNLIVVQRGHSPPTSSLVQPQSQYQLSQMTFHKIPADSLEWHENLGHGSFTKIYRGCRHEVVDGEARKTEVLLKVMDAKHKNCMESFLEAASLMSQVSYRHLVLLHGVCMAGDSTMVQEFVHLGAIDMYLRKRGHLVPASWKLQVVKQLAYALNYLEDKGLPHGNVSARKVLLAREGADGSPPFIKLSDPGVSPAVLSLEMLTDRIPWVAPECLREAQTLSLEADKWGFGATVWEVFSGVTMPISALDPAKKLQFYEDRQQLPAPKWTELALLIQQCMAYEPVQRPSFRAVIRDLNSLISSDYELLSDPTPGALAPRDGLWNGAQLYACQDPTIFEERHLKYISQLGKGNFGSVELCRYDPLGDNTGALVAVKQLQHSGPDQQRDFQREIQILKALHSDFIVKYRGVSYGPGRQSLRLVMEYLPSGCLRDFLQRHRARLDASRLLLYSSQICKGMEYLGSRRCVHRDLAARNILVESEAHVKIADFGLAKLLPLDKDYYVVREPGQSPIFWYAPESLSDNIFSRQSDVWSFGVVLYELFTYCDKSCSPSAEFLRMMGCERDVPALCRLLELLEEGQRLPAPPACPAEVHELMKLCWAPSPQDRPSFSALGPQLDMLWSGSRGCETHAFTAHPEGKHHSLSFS
Briefly: JAK3 enzyme inhibition test (LANCE method). As to conditions: 1 μM test compound; for inhibition at 1 µM: read-out: JAK3 enzyme inhibitory activity (%, 1 μM). A digest of the protocol: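 TR-FRET (LANCE) read: 1 h room-temperature reaction, EDTA quench, Eu-anti-phosphotyrosine antibody, emission 665 nm after 340 nm excitation. Added solutions held 12 ng/mL JAK3, 300 nM ULight-JAK1 substrate and 15 μM ATP (pH 7.5 HEPES). Activity expressed against no-enzyme wells defined as full inhibition.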

For test [4], the target named is T4, TYK2 (Homo sapiens, UniProt P29597).
T4 construct: purchased Invitrogen
T4 sequence (P29597 whole entry): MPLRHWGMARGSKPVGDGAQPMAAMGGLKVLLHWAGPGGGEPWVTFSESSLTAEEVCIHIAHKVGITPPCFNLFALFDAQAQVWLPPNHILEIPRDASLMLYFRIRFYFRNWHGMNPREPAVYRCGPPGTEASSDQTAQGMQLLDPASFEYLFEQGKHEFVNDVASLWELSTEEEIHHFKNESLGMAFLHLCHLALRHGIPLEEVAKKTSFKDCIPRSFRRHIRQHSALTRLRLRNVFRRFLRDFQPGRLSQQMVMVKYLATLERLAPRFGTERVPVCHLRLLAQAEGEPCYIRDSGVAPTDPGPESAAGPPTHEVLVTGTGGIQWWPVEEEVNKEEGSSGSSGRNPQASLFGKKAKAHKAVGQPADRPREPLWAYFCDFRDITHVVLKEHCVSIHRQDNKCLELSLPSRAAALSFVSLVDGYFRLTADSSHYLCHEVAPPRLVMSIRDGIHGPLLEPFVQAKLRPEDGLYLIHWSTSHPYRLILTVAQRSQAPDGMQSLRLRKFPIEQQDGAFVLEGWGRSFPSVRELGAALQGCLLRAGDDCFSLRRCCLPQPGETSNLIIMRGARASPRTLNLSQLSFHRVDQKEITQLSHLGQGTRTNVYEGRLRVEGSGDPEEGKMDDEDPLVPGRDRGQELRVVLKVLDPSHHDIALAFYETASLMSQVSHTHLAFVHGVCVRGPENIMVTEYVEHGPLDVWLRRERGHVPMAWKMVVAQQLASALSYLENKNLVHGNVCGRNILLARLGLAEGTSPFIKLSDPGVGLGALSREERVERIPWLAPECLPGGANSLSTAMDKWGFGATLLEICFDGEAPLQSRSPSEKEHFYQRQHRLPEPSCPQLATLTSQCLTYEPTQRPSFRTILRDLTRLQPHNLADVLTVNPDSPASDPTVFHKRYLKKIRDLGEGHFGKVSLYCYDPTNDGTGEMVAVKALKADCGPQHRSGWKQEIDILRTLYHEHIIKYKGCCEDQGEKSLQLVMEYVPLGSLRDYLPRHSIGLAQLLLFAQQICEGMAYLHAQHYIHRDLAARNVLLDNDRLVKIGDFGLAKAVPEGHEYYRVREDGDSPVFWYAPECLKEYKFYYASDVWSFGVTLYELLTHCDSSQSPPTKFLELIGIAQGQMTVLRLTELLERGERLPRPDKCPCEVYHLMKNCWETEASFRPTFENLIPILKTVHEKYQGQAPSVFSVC
Briefly: TYK2 enzyme inhibition test (LANCE method). The settings on record: 1 μM test compound; for inhibition at 1 µM: read-out: TYK2 enzyme inhibitory activity (%, 1 μM). The gist of the method: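 TR-FRET (LANCE) readout: after 1 h room-temperature kinase reaction, EDTA plus 4 nM Eu-labelled anti-phosphotyrosine antibody added, signal at 665 nm (340 nm excitation). Reaction combined TYK2, ULight-JAK1 substrate and ATP, prepared at 375 ng/mL, 300 nM and 30 μM before addition, in pH 7.5 HEPES/MgCl2 buffer; enzyme-free wells define full inhibition.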

T2 sequence (O60674 whole entry): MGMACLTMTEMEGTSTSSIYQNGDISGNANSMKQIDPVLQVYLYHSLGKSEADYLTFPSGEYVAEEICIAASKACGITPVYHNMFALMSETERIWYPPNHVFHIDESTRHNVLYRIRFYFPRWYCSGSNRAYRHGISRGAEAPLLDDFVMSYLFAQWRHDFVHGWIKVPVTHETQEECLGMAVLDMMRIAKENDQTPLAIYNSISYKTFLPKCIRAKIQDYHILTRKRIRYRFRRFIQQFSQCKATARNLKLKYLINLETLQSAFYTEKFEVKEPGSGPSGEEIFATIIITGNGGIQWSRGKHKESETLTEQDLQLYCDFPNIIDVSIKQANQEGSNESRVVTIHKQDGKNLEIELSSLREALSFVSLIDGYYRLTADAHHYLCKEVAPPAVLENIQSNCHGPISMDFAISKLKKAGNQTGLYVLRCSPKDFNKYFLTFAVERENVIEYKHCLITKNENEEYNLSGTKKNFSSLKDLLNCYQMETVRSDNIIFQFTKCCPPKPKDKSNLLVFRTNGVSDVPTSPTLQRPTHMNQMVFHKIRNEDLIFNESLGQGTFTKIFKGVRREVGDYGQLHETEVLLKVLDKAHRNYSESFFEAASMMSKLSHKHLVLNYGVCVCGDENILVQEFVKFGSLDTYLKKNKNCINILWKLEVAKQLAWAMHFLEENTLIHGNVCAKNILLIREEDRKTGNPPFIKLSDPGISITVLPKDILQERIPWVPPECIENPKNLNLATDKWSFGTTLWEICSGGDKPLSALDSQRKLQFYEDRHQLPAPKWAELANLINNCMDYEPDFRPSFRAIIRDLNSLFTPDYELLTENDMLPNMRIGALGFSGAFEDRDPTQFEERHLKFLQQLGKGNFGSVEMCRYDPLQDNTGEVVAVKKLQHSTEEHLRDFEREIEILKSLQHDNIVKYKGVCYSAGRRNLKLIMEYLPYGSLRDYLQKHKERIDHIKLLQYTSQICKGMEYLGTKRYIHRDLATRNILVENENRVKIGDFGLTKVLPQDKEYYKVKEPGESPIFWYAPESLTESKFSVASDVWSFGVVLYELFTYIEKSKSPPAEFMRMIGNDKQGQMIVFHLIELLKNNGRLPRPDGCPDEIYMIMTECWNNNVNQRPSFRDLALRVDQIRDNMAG
T1 sequence (P23458 whole entry): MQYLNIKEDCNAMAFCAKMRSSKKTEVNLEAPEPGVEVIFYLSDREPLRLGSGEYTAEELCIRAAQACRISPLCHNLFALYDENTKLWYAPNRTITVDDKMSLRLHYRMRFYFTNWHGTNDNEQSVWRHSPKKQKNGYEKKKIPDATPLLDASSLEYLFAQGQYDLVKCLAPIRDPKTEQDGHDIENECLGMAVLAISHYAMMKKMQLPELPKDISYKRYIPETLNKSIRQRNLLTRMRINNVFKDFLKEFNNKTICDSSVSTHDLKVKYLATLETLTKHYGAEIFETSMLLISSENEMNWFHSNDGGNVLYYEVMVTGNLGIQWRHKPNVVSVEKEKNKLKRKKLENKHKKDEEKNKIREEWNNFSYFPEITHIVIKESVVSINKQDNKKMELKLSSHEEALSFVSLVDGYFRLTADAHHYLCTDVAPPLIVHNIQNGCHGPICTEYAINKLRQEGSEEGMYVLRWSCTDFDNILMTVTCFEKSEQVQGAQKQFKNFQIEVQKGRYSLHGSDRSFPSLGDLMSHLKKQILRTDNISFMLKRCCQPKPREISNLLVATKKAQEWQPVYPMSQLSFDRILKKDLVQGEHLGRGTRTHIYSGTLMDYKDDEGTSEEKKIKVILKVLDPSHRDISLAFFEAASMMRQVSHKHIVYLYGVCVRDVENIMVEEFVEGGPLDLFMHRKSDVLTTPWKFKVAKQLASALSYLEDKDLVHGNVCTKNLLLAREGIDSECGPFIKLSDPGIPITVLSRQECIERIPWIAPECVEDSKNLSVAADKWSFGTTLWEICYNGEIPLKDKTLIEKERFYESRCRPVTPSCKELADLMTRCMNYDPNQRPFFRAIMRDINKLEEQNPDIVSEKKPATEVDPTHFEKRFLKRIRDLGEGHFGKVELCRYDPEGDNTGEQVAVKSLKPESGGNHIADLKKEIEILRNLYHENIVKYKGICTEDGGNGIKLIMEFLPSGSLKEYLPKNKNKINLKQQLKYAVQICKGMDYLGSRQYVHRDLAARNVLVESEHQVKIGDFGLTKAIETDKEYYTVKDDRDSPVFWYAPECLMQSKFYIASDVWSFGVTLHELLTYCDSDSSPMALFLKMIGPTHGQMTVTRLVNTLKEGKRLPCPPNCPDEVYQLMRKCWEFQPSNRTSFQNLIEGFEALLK

With `CC1CCCCC1n1cc(-c2cc(C(C)(C)O)n(C)n2)c2[nH]nc(N)c2c1=O` (centres unmarked) [Example 120, 3-amino-7-(5-(2-hydroxypropan-2-yl)-1-methyl-1H-pyrazol-3-yl)-5-(2-methylcyclohexyl)-1,5-dihydro-4H-pyrazolo[4,3-c]pyridin-4-one], the “JAK1 enzyme inhibitory activity (%, 1 μM)” value in test [1] is listed as 100%. For the same compound, the “JAK2 enzyme inhibitory activity (%, 1 μM)” value in test [2] is listed as 100%. Besides, the “JAK3 enzyme inhibitory activity (%, 1 μM)” value in test [3] is given as 100%. Further, the “TYK2 enzyme inhibitory activity (%, 1 μM)” value in test [4] was 101%.
For `CC1CCCCC1n1cc(-c2cc(N3CCOCC3)n(C)n2)c2[nH]nc(N)c2c1=O` (centres unmarked) [Example 155, 3-amino-5-(2-methylcyclohexyl)-7-(1-methyl-5-(morpholin-4-yl)-1H-pyrazol-3-yl)-1,5-dihydro-4H-pyrazolo[4,3-c]pyridin-4-one], the “JAK1 enzyme inhibitory activity (%, 1 μM)” value in test [1] was found to be 76%. In test [2], the “JAK2 enzyme inhibitory activity (%, 1 μM)” value amounted to 81%. In test [3], the “JAK3 enzyme inhibitory activity (%, 1 μM)” value was 98%. In addition, the “TYK2 enzyme inhibitory activity (%, 1 μM)” value in test [4] is on record as 101%.
Take `CC(C)[C@H](C)n1cc(-c2cc(N3CCC(C)(O)CC3)n(C)n2)c2[nH]nc(N)c2c1=O` [Example 18, 3-amino-7-(5-(4-hydroxy-4-methylpiperidin-1-yl)-1-methyl-1H-pyrazol-3-yl)-5-((2S)-3-methylbutan-2-yl)-1,5-dihydro-4H-pyrazolo[4,3-c]pyridin-4-one]: the inhibition at 1 µM in test [1] was 96%; in test [2] it was 98%; in test [3] it was 99%; in test [4], 99%.
In the case of `CC(=O)NCC(C)(C)c1cc(-c2cn([C@@H](C)C(C)C)c(=O)c3c(N)n[nH]c23)nn1C` [Example 51, N-(2-(3-(3-amino-5-((2S)-3-methylbutan-2-yl)-4-oxo-4,5-dihydro-1H-pyrazolo[4,3-c]pyridin-7-yl)-1-methyl-1H-pyrazol-5-yl)-2-methylpropyl)acetamide], the inhibition at 1 µM stood at 97% in test [1], 97% in test [2], 97% in test [3] and 99% in test [4].
Regarding `C[C@@H](C1CC1)n1cc(-c2cc(N3CCOCC3)n(C)n2)c2[nH]nc(N)c2c1=O` [Example 5, 3-amino-5-((1S)-1-cyclopropylethyl)-7-(1-methyl-5-(morpholin-4-yl)-1H-pyrazol-3-yl)-1,5-dihydro-4H-pyrazolo[4,3-c]pyridin-4-one], the inhibition at 1 µM was determined as 99% in test [1], 100% in test [2], 100% in test [3] and 100% in test [4].
With `CC(n1cc(-c2cc(N3CCOCC3)n(C)n2)c2[nH]nc(N)c2c1=O)C1(C)CC1` (centres unmarked) [Example 81, 3-amino-5-(1-(1-methylcyclopropyl)ethyl)-7-(1-methyl-5-(morpholin-4-yl)-1H-pyrazol-3-yl)-1,5-dihydro-4H-pyrazolo[4,3-c]pyridin-4-one], the inhibition at 1 µM in test [1] worked out at 99%; in test [2] it was 100%; in test [3], 100%; in test [4], 99%.
For `COC1(c2cc(-c3cn(-c4c(F)cccc4F)c(=O)c4c(N)n[nH]c34)nn2C)CN(S(C)(=O)=O)C1` [Example 132, 3-amino-5-(2,6-difluorophenyl)-7-(5-(3-methoxy-1-(methylsulfonyl)azetidin-3-yl)-1-methyl-1H-pyrazol-3-yl)-1,5-dihydro-4H-pyrazolo[4,3-c]pyridin-4-one], the inhibition at 1 µM in test [1] was determined as 94%; in test [2], 98%; in test [3], 99%; in test [4], 100%.
Regarding `CC1CCCCC1n1cc(-c2cc(N3CCOCC3)n(C)n2)c2[nH]nc(N)c2c1=O` (centres unmarked) [Example 154, 3-amino-5-(2-methylcyclohexyl)-7-(1-methyl-5-(morpholin-4-yl)-1H-pyrazol-3-yl)-1,5-dihydro-4H-pyrazolo[4,3-c]pyridin-4-one], the “JAK1 enzyme inhibitory activity (%, 1 μM)” value in test [1] is given as 97%. Also, in test [2], the “JAK2 enzyme inhibitory activity (%, 1 μM)” value is given as 98%. Further, the “JAK3 enzyme inhibitory activity (%, 1 μM)” value in test [3] is 100%. Further, the “TYK2 enzyme inhibitory activity (%, 1 μM)” value in test [4] stood at 102%.

The values above are taken from patent publication US9637483B2, “Heterocyclic compound” (TAKEDA PHARMACEUTICAL COMPANY LIMITED, priority 2013, dated 2017).
